Results from patent US5948802A, “Benzoate derivatives of diaryl 1,3,4-oxadiazolone” (Bristol-Myers Squibb Company, priority 1999, dated 1999).
Counter-ions that a name gives are not always drawn.

Legend:
[1] = Rapid screen of prodrug hydrolysis and drug release in plasma; format: in vitro ADME; conditions: 10 ug/mL in fresh rat plasma at 37° C.; analysis 5 minutes after incubation; stock 1 mg/mL in PEG-400
Procedure: A rapid screen to determine the ability of prodrugs to hydrolyze and release the drug (compound of Preparation 1) is conducted as follows. A 1 mg/mL stock solution of the prodrug is prepared in distilled water or acetonitrile or PEG-400. Plasma from freshly collected rat or human blood is used in this assay. To 1 mL of plasma at 37° C. was added 10 μL of stock solution of prodrug and mixed gently. Immediately after the mixing, 100 μL of plasma was removed and quenched with 300 μL of acetontrile (Zero time sample). Samples were also obtained at 30 minutes and quenched immediately. The quenched samples were centrifuged to obtain a clear supernatant for analysis. The stock solution, T=0 and T=30 samples were analyzed by a HPLC assay that separates the drug from the prodrug. Based on the relative peak areas of prodrug and drug in these samples, different prodrugs are characterized as fast, moderate and slow release agents. For example, in this model, the compound of Example 1 was dissolved in PEG-400 at a concentration of 1 mg/mL and incubated at 10 ug/mL in fresh rat plasma at 37° C.

[2] = test system: cloned mammalian (mSlo or hSlo) BK-mediated outward current; assay: Increase of cloned BK-mediated outward current in Xenopus oocytes, two-electrode voltage clamp; format: cell-based; conditions: 1 μM; at least 5 oocytes; mSlo or hSlo expressed in Xenopus oocytes
Procedure: (§1) The ability of the compound of Preparation 1 to open BK channels and increase whole-cell outward (K^+) BK-mediated currents was assessed under voltage-clamp conditions by determining their ability to increase cloned mammalian (mSlo or hSlo) BK-mediated outward current heterologously expressed in Xenopus oocytes [Butler, A., et al., Science, 261, pp. 221-224 (1993); and Dworetzky, S. I., et al., Mol. Brain Res., 27, pp.189-193 (1994)]. The two BK constructs employed represent nearly structurally identical homologous proteins, and have proven to be pharmacologically identical in our tests. To isolate BK current from native (background, non-BK) current, the specific and potent BK channel-blocking toxin iberiotoxin (IBTX) [Galvez, A., et al., J. Biol. Chem, 265, pp. 11083-11090 (1990)] was employed at a supramaximal concentration (50 nM). The relative contribution of BK channels current to total outward current was determined by subtraction of the current remaining in the presence of IBTX (non-BK current) from the current profiles obtained in all other experimental conditions (control, drug, and wash). […]

[3] = test system: non-BK native currents in the oocytes; assay: Effect on non-BK (IBTX-insensitive) native currents in oocytes; format: cell-based, Xenopus; conditions: at the tested concentration
Procedure: as §1

[4] = test system: focal cerebral ischemia; assay: Focal stroke model: permanent MCA and CCA occlusion, cortical infarct volume; format: in vivo, Wistar rat; conditions: 10 μg/kg i.v. single bolus two hours after MCA occlusion; measured 24 hours after MCAO; vs vehicle-treated (water) control
Procedure: To determine the ability of the compounds of the present invention to reduce cell loss resulting from neuronal ischemia, a standard focal cerebral ischemia is induced by permanent occlusion of the left middle cerebral artery (MCA) and common carotid artery (CCA) with one hour occlusion of the right CCA in the Wistar rat. The surgeries are performed using the sub-temporal approach of A. Tamura, et al., J. Cereb. Blood Flow Metab., 1, pp. 53-60, (1981) and its modifications [K. Osborne, et al., J. Neurol Neurosurg. Psychiatry, 50, pp. 402-410 (1987) and S. Menzies,et al., Neurosurgery, 31, pp. 100-107, (1992).]
The compound of Preparation 1 was evaluated in the focal stroke model involving permanent occlusion of the left MCA (MCAO) and CCA (CCAO) and temporary occlusion of the right CCA in the Wistar rat. This procedure results in a reliably large neocortical infarct volume that is measured by means of vital dye exclusion in serial slices through the brain 24 hours after MCAO. In the present test, compounds were administered using an i.v. or i.p. route of administration two hours after occlusion.

Row | SMILES | conversion of prodrug to the compound of Preparation 1 [1] | BK current, % of control of IBTX-sensitive current [2] | effect on non-BK native currents in the oocytes [3] | reduction of cortical infarct volume [4]
1 | CCN(CC)Cc1ccc(C(=O)Oc2ccc(Cl)cc2Cn2nc(-c3ccc(C(F)(F)F)cc3)oc2=O)cc1 [Example 1, 4-Chloro-2-[[5-[4-(trifluoromethyl)phenyl]-2,3-dihydro-2-oxo-1,3,4-oxadiazol-3-yl]methyl]phenyl 4-[(diethylamino)-methylbenzoate hydrochloride] | indicated conversion of the compound of Example 1 to the compound of Preparation 1 | – | – | –
2 | O=c1oc(-c2ccc(C(F)(F)F)cc2)nn1Cc1cc(Cl)ccc1O [Preparation 1, 3-[(5-Chloro-2-hydroxyphenyl)methyl]-5-[4-(trifluoromethyl)phenyl]-1,3,4-oxadiazol-2(3H)-one] | – | 126% | did not effect non-BK native currents | about 18%
